Tests used:
D1R [1] = biological target: T1, D1R (Homo sapiens, UniProt P21728); test: Binding affinity at dopamine D1R, [3H]SCH23390 radioligand; settings: for selectivity D1R over D5R: from Ki values
D5R = D5R (Homo sapiens, UniProt P21918); test: Binding affinity at dopamine D5R, [3H]SCH23390 radioligand; settings: from Ki values
D1R [2] = biological target: T1, D1R; test: D1R agonist/antagonist assays measuring cAMP modulation; settings: agonist mode

T1 sequence (P21728 whole entry): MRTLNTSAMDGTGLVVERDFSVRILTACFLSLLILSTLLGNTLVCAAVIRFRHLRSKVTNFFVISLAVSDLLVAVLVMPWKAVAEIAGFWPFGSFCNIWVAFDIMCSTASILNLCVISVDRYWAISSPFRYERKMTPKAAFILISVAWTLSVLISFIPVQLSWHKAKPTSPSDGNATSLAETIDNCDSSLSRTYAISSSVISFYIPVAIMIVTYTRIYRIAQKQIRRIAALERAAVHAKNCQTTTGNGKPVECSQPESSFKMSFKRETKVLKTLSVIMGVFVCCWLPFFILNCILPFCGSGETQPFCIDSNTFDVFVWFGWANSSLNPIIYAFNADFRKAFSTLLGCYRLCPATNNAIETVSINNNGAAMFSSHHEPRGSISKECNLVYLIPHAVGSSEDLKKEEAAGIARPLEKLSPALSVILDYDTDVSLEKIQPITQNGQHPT
D5R, sequence (P21918 whole entry): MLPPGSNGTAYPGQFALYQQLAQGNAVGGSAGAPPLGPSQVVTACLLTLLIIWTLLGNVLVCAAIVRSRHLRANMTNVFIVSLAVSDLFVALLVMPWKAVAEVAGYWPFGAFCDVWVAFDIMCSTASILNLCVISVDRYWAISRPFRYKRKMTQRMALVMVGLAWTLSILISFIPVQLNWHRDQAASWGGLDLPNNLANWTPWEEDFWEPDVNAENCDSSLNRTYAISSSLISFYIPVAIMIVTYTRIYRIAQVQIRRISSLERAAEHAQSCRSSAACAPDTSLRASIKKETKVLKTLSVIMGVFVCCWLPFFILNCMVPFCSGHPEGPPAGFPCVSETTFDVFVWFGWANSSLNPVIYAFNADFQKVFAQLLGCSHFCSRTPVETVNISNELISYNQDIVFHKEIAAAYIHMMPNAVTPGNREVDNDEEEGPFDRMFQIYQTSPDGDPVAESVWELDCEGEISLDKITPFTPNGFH

Row | SMILES | selectivity D1R over D5R (D1R [1]) | further results
1 | COc1cc2c(cc1O)C(c1ccccc1)CNCC2 (stereo not drawn) [Compound 6a] | up to 3 fold | –
2 | COc1cc2c(cc1O)C(c1ccccc1Cl)CNCC2 (stereo not drawn) [Compound 6b] | up to 3 fold | –
3 | COc1cc2c(cc1O)C(c1c(Cl)cccc1Cl)CNCC2 (stereo not drawn) [Compound 6c] | – | selectivity D5R over D1R (D5R): 3 fold
4 | COc1cc2c(cc1O)C(c1ccccc1Br)CNCC2 (stereo not drawn) [Compound 6d] | up to 3 fold | –
5 | Oc1cc2c(cc1O)C(c1ccccc1Br)CNCC2 (stereo not drawn) [Compound 7] | – | increase in D1R affinity versus C7 methoxy analog 6d (D1R [1]; catechol 7 compared with 6d): roughly 3 fold
6 | COc1cc2c(cc1O)C(c1ccccc1Cl)CN(C)CC2 (stereo not drawn) [Compound 10a] | – | agonist activity (D1R [2]): No agonist activity was detected

Source: article PMC7340849 (Bioorganic & medicinal chemistry letters, 2020)
